The results in this text go back to PubChem BioAssay (NCI).

Test systems include DMS 114 small cell lung; KM20L2 colon; M19-MEL melanoma; DLD-1 colon; P388 leukemia; DMS 273 small cell lung; P388/ADR leukemia; SNB-78 CNS; HOP-18 NSCLC; XF 498 CNS; SN12K1 renal; LXFL 529 NSCLC; RXF-631 renal.
Holding throughout (assay): NCI tumour cell line growth inhibition, 48 h

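Each compound was tested at five concentrations against cells in 96-well plates for 48 hours. TGI: total growth inhibition.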 Bounds are passed on as bounds.

In the case of `O=c1[nH]c2cc([N+](=O)[O-])ccc2nc1/C(=N/Nc1ccccc1)C(O)c1ccc(C(O)/C(=N\Nc2ccccc2)c2cnc3cc([N+](=O)[O-])ccc3n2)cc1` (stereo not given), the TGI in the assay on DMS 114 small cell lung, in the assay on KM20L2 colon and in the assay on M19-MEL melanoma was > 100 µM in each case.
Regarding `COC1C(O)C(C)OC(OC2C(Oc3cccc4c(O)c5c(=O)oc6ccc(C)c7c(=O)oc(c34)c5c67)OC(C)C(O)C2O)C1O` (stereo not given), the TGI with DMS 114 small cell lung was found to be 4.03 µM; in the assay with KM20L2 colon, 18.5 µM; in the assay on DLD-1 colon, 14.9 µM; in the assay with P388 leukemia it was 3.48 µM; in the assay on DMS 273 small cell lung, 9.1 µM; in the assay on M19-MEL melanoma, 4.39 µM. For the same compound, the TGI in the assay on P388/ADR leukemia amounted to 85 µM; in the assay with SNB-78 CNS it was 19.3 µM; in the assay on HOP-18 NSCLC it was 8.35 µM; in the assay with XF 498 CNS, 3.37 µM; in the assay on SN12K1 renal, 3.5 µM.
Regarding `CS(=O)(=O)c1c(N)c2nc(Cl)cn2c2nc3ccccc3nc12`, the TGI in the assay with LXFL 529 NSCLC, in the assay on RXF-631 renal, with DMS 114 small cell lung, in the assay on KM20L2 colon, in the assay with DLD-1 colon and in the assay with DMS 273 small cell lung was > 100 µM each time. In addition, the TGI in the assay with M19-MEL melanoma, in the assay on SNB-78 CNS and with XF 498 CNS was > 100 µM throughout.
For `CC(=O)c1ccc2c(ccc(=O)n2C)c1`, the TGI in the assay with LXFL 529 NSCLC, in the assay with DMS 114 small cell lung, in the assay with KM20L2 colon, in the assay on DLD-1 colon, with DMS 273 small cell lung and in the assay with M19-MEL melanoma was > 100 µM each time. The TGI with HOP-18 NSCLC and with XF 498 CNS was > 100 µM throughout.
For the compound `CCN1C[C@]2(C)CC[C@H](OC)C34C1C([C@H](OC(C)=O)[C@@H]32)[C@@]1(OC)C[C@H](OC)[C@H]2C[C@@H]4[C@@H]1[C@H]2O`, the TGI with LXFL 529 NSCLC, in the assay with DMS 114 small cell lung, in the assay on KM20L2 colon, with DLD-1 colon, with DMS 273 small cell lung and in the assay with M19-MEL melanoma was > 100 µM each time. The TGI in the assay on SNB-78 CNS, with HOP-18 NSCLC and with XF 498 CNS was > 100 µM in each case.
As to `CN(CCO)c1nc(N)cc(=O)[nH]1`, the TGI with LXFL 529 NSCLC, in the assay on DMS 114 small cell lung, in the assay on KM20L2 colon, with DLD-1 colon, in the assay on DMS 273 small cell lung and with M19-MEL melanoma was > 100 µM each time. The TGI with SNB-78 CNS, in the assay with HOP-18 NSCLC and in the assay on XF 498 CNS was > 100 µM each time.
For `CCN(CC)CCCC(C)Nc1ccnc2ccc3nn(C)nc3c12` (stereo not given), the TGI in the assay with LXFL 529 NSCLC is > 100 µM; with KM20L2 colon, > 100 µM; in the assay with DLD-1 colon, > 100 µM; in the assay with DMS 273 small cell lung, 91.5 µM; in the assay on M19-MEL melanoma, > 100 µM; in the assay on SNB-78 CNS, > 100 µM. Further, the TGI in the assay with HOP-18 NSCLC was > 100 µM.
In the case of `C=C1C(=O)OC2/C=C(/C)C3CC(O)C(C)(CC(OC(=O)/C(C)=C/C)C12)O3` (stereo not given), the TGI was found to be 5.84 µM with LXFL 529 NSCLC; 19.8 µM in the assay with DMS 114 small cell lung; 13.1 µM in the assay on KM20L2 colon; 3.12 µM in the assay on DLD-1 colon; 8.8 µM in the assay with DMS 273 small cell lung; 9.57 µM in the assay with M19-MEL melanoma. The results for the TGI in the assay with SNB-78 CNS, with HOP-18 NSCLC and in the assay with XF 498 CNS were 7.7 µM, 31.2 µM and 17.2 µM, respectively.
Take `O=C(O)CS`: the TGI in the assay with LXFL 529 NSCLC, in the assay on DMS 114 small cell lung, in the assay with KM20L2 colon, in the assay with DLD-1 colon, with DMS 273 small cell lung and with M19-MEL melanoma was > 100 µM throughout. For the same compound, the TGI in the assay on SNB-78 CNS and in the assay with XF 498 CNS was > 100 µM throughout.
With `CC(C)CCC[C@@H](C)C1CCC2[C@@H]3CC=C4C[C@@H](C(=O)NCC[N+](C)(C)CCCS(=O)(=O)[O-])CC[C@]4(C)C3CC[C@@]21C` (stereo not given in full), the TGI is 33.3 µM with LXFL 529 NSCLC; 34.6 µM with RXF-631 renal; 35.7 µM with DMS 114 small cell lung; 30.4 µM in the assay on KM20L2 colon; 49.7 µM in the assay on DLD-1 colon; 31.4 µM in the assay on DMS 273 small cell lung. Further, the TGI with M19-MEL melanoma turned out to be 31.1 µM; in the assay on SNB-78 CNS it was 37.4 µM; in the assay on HOP-18 NSCLC, 35.8 µM.
Turning to `c1ccc(C2=NOC3(c4ccccc4)SC4CCCCC4CN23)cc1` (stereo not given), the TGI in the assay on LXFL 529 NSCLC was 27 µM; with DMS 114 small cell lung, 30.5 µM; in the assay on KM20L2 colon it was > 100 µM; with DLD-1 colon, > 100 µM; with DMS 273 small cell lung, 77.3 µM; in the assay on M19-MEL melanoma, > 100 µM. Moreover, the TGI is 91.7 µM in the assay with SNB-78 CNS, > 100 µM in the assay with HOP-18 NSCLC and > 100 µM with XF 498 CNS.
Turning to `CC(C)(C)NC(=O)NC12CC3CC(CC(F)(C3)C1)C2`, the TGI with LXFL 529 NSCLC, in the assay with RXF-631 renal, with DMS 114 small cell lung, in the assay on KM20L2 colon, in the assay with DLD-1 colon and in the assay on DMS 273 small cell lung was > 100 µM each time. The TGI in the assay with M19-MEL melanoma, with SNB-78 CNS and in the assay on XF 498 CNS was > 100 µM each time.
